Results: patent publication US20110182850A1, “ORGANIC COMPOUNDS AND THEIR USES” (priority 2009, published 2011)

These compounds were tested against T1, HCV NS3-4A serine protease (full-length NS3-4A protein, genotype 1a, strain HCV-1) (Hepatitis C virus genotype 1a, UniProt P26664) (assay: HCV NS3-4A protease assay). Conditions: Protease IC50.
T1 construct: using the full-length NS3-4A protein (genotype 1a, strain HCV-1)
Type: biochemical
Procedure: The inhibitory activity of certain compounds of Table A against HCV NS3-4A serine protease is determined in a homogenous assay using the full-length NS3-4A protein (genotype 1a, strain HCV-1) and a commercially available internally-quenched fluorogenic peptide substrate as described by Taliani, M., et al. 1996 Anal. Biochem. 240:60-67, which is incorporated by reference in its entirety.

T1 sequence (P26664 1658-1711): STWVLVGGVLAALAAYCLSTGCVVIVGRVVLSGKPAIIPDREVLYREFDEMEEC
T1 sequence (P26664 1027-1657): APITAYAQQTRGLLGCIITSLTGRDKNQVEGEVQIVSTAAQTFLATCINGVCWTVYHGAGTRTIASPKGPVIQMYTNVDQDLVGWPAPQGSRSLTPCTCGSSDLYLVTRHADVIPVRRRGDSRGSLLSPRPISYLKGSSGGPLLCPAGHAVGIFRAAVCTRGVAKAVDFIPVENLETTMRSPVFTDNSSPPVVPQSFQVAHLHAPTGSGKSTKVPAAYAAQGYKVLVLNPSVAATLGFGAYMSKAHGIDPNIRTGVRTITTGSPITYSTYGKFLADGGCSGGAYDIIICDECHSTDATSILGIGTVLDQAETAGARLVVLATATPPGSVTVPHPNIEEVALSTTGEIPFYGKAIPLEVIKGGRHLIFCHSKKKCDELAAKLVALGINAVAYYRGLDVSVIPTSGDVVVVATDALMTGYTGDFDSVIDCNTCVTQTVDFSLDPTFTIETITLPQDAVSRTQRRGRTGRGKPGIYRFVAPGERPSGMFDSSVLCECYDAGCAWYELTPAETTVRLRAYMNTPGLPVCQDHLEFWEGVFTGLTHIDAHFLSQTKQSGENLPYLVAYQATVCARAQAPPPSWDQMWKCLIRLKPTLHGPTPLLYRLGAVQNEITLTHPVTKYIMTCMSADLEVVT

Compound | IC50
C=C[C@@H]1C[C@]1(NC(=O)[C@@H]1C[C@@]2(CN1C(=O)[C@@H](NC(=O)[C@@H](NC(=O)[C@@H]1CCCCN1C(C)C)C1CCCCC1)C(C)(C)C)C(C)(C)C21CCC1)C(=O)NS(=O)(=O)c1ccccc1 [Compound 61, (5R,8S)-7-[(2S)-2-{[(2S)-2-cyclohexyl-2-({[(2S)-1-isopropylpiperidin-2-yl]carbonyl}amino)acetyl]amino}-3,3-dimethylbutanoyl]-10,10-dimethyl-N-{(1R,2S)-1-[(phenylsulfonyl)carbamoyl]-2-vinylcyclopropyl}-7-azadispiro[3.0.4.1]decane-8-carboxamide] | 1.5 nM
C=C[C@@H]1C[C@]1(NC(=O)[C@@H]1C[C@@]2(CN1C(=O)[C@@H](NC(=O)[C@@H](NC(=O)[C@@H]1CCCN1C(C)C)C1CCCCC1)C(C)(C)C)C(C)(C)C21CCC1)C(=O)NS(=O)(=O)c1ccccc1 [Compound 62, (5R,8S)-7-[(2S)-2-{[(2S)-2-cyclohexyl-2-({[(2S)-1-isopropylpyrrolidin-2-yl]carbonyl}amino)acetyl]amino}-3,3-dimethylbutanoyl]-10,10-dimethyl-N-{(1R,2S)-1-[(phenylsulfonyl)carbamoyl]-2-vinylcyclopropyl}-7-azadispiro[3.0.4.1]decane-8-carboxamide] | 0.7 nM
C=C[C@@H]1C[C@]1(NC(=O)[C@@H]1C[C@@]2(CN1C(=O)[C@@H](NC(=O)[C@@H](NC(=O)c1cnccn1)C1CCCCC1)C(C)(C)C)C(C)(C)C21CCC1)C(=O)NS(=O)(=O)C1(C)CC1 [Compound 64, (5R,8S)-7-[(2S)-2-({(2S)-2-cyclohexyl-2-[(pyrazin-2-ylcarbonyl)amino]acetyl}amino)-3,3-dimethylbutanoyl]-10,10-dimethyl-N-[(1R,2S)-1-{[(1-methylcyclopropyl)sulfonyl]carbamoyl}-2-vinylcyclopropyl]-7-azadispiro[3.0.4.1]decane-8-carboxamide] | 1.5 nM
C=C[C@@H]1C[C@]1(NC(=O)[C@@H]1C[C@@]2(CN1C(=O)[C@@H](NC(=O)[C@@H](NC(=O)[C@@H]1CCCCN1C(C)C)C1CCCCC1)C(C)(C)C)C(C)(C)C21CCC1)C(=O)NS(=O)(=O)C1(CC)CC1 [Compound 66, (5R,8S)-7-[(2S)-2-{[(2S)-2-cyclohexyl-2-({[(2S)-1-isopropylpiperidin-2-yl]carbonyl}amino)acetyl]amino}-3,3-dimethylbutanoyl]-N-[(1R,2S)-1-{[(1-ethylcyclopropyl)sulfonyl]carbamoyl}-2-vinylcyclopropyl]-10,10-dimethyl-7-azadispiro[3.0.4.1]decane-8-carboxamide] | 1.8 nM
C=C[C@@H]1C[C@]1(NC(=O)[C@@H]1C[C@@]2(CN1C(=O)[C@@H](NC(=O)[C@@H](NC(=O)[C@@H]1CCCN1C(C)C)C1CCCCC1)C(C)(C)C)C(C)(C)C21CCC1)C(=O)NS(=O)(=O)C1(C)CC1 [Compound 72, (5R,8S)-7-[(2S)-2-{[(2S)-2-cyclohexyl-2-({[(2S)-1-isopropylpyrrolidin-2-yl]carbonyl}amino)acetyl]amino}-3,3-dimethylbutanoyl]-10,10-dimethyl-N-[(1R,2S)-1-{[(1-methylcyclopropyl)sulfonyl]carbamoyl}-2-vinylcyclopropyl]-7-azadispiro[3.0.4.1]decane-8-carboxamide] | 2 nM
C=C[C@@H]1C[C@]1(NC(=O)[C@@H]1C[C@@]2(CN1C(=O)[C@@H](NC(=O)[C@@H](NC(=O)[C@@H]1CCCCN1CC)C1CCCCC1)C(C)(C)C)C(C)(C)C21CCC1)C(=O)NS(=O)(=O)C1(C)CC1 [Compound 73, (5R,8S)-7-[(2S)-2-{[(2S)-2-cyclohexyl-2-({[(2S)-1-ethylpiperidin-2-yl]carbonyl}amino)acetyl]amino}-3,3-dimethylbutanoyl]-10,10-dimethyl-N-[(1R,2S)-1-{[(1-methylcyclopropyl)sulfonyl]carbamoyl}-2-vinylcyclopropyl]-7-azadispiro[3.0.4.1]decane-8-carboxamide] | 3 nM
C=C[C@@H]1C[C@]1(NC(=O)[C@@H]1C[C@@]2(CN1C(=O)[C@@H](NC(=O)[C@@H](NC(=O)[C@@H]1CCCCN1C(C)C)C1CCCCC1)C(C)(C)C)C(C)(C)C21CCC1)C(=O)NS(=O)(=O)C(F)(F)F [Compound 78, (5R,8S)-7-[(2S)-2-{[(2S)-2-cyclohexyl-2-({[(2S)-1-isopropylpiperidin-2-yl]carbonyl}amino)acetyl]amino}-3,3-dimethylbutanoyl]-10,10-dimethyl-N-[(1R,2S)-1-{[(trifluoromethyl)sulfonyl]carbamoyl}-2-vinylcyclopropyl]-7-azadispiro[3.0.4.1]decane-8-carboxamide] | 2.5 nM
C=C[C@@H]1C[C@]1(NC(=O)[C@@H]1C[C@@]2(CN1C(=O)[C@@H](NC(=O)[C@@H](NC(=O)[C@@H]1CCCCN1CC)C1CCCCC1)C(C)(C)C)C(C)(C)C21CCC1)C(=O)NS(=O)(=O)C(F)(F)F [Compound 79, (5R,8S)-7-[(2S)-2-{[(2S)-2-cyclohexyl-2-({[(2S)-1-ethylpiperidin-2-yl]carbonyl}amino)acetyl]amino}-3,3-dimethylbutanoyl]-10,10-dimethyl-N-[(1R,2S)-1-{[(trifluoromethyl)sulfonyl]carbamoyl}-2-vinylcyclopropyl]-7-azadispiro[3.0.4.1]decane-8-carboxamide] | 2 nM
C=C[C@@H]1C[C@]1(NC(=O)[C@@H]1C[C@@]2(CN1C(=O)[C@@H](NC(=O)[C@@H](NC(=O)[C@@H]1CCCCN1C(C)C)C1CCCCC1)C(C)(C)C)C(C)(C)C21CCC1)C(=O)NS(=O)(=O)C1CCCC1 [Compound 80, (5R,8S)-7-[(2S)-2-{[(2S)-2-cyclohexyl-2-({[(2S)-1-isopropylpiperidin-2-yl]carbonyl}amino)acetyl]amino}-3,3-dimethylbutanoyl]-N-{(1R,2S)-1-[(cyclopentylsulfonyl)carbamoyl]-2-vinylcyclopropyl}-10,10-dimethyl-7-azadispiro[3.0.4.1]decane-8-carboxamide] | 10 nM
CC(C)N1CCCC[C@H]1C(=O)N[C@H](C(=O)N[C@H](C(=O)N1C[C@]2(C[C@H]1C(=O)NC1(C(=O)NS(=O)(=O)C3CC3)CCCC1)C(C)(C)C21CCC1)C(C)(C)C)C1CCCCC1 [Compound 84, (5R,8S)-7-[(2S)-2-{[(2S)-2-cyclohexyl-2-({[(2S)-1-isopropylpiperidin-2-yl]carbonyl}amino)acetyl]amino}-3,3-dimethylbutanoyl]-N-{1-[(cyclopropylsulfonyl)carba-moyl]cyclopentyl}-10,10-dimethyl-7-azadispiro[3.0.4.1]decane-8-carboxamide] | 100 nM
C=CCC(C)(NC(=O)[C@@H]1C[C@@]2(CN1C(=O)[C@@H](NC(=O)[C@@H](NC(=O)[C@@H]1CCCCN1C(C)C)C(C)(C)C)C(C)(C)C)C(C)(C)C21CCC1)C(=O)NS(=O)(=O)C1CC1 (stereo partly drawn) [Compound 85, (5R,8S)-N-{1-[(cyclopropylsulfonyl)carba-moyl]-1-methylbut-3-en-1-yl}-7-[(2S)-2-{[(2S)-2-({[(2S)-1-isopropylpiperidin-2-yl]carbonyl}amino)-3,3-dimethylbutanoyl]amino}-3,3-dimethylbutanoyl]-10,10-dimethyl-7-azadispiro[3.0.4.1]decane-8-carboxamide] | 7630 nM
C=CCC(C)(NC(=O)[C@@H]1C[C@@]2(CN1C(=O)[C@@H](NC(=O)[C@@H](NC(=O)[C@@H]1CCCCN1C(C)C)C(C)(C)C)C(C)(C)C)C(C)(C)C21CCC1)C(=O)NS(=O)(=O)C1CC1 (stereo partly drawn) [Compound 86, (5R,8S)-N-{1-[(cyclopropylsulfonyl)carba-moyl]-1-methylbut-3-en-1-yl}-7-[(2S)-2-{[(2S)-2-({[(2S)-1-isopropylpiperidin-2-yl]carbonyl}amino)-3,3-dimethylbutanoyl]amino}-3,3-dimethylbutanoyl]-10,10-dimethyl-7-azadispiro[3.0.4.1]decane-8-carboxamide] | 4050 nM

Same assay, conditions: read-out: Protease IC50

IC50 | Compound
400 nM | C=C[C@@H]1C[C@]1(NC(=O)[C@@H]1C[C@@]2(CN1C(=O)[C@@H](NC(=O)c1coc(CN(C)C)n1)C(C)(C)C)C(C)(C)C21CCC1)C(=O)NS(=O)(=O)C1CC1 [Compound 59, (5R,8S)-N-{(1R,2S)-1-[(cyclopropylsulfonyl)carba-moyl]-2-vinylcyclopropyl}-7-{(2S)-2-[({2-[(dimethylamino)methyl]-1,3-oxazol-4-yl}carbonyl)amino]-3,3-dimethylbutanoyl}-10,10-dimethyl-7-azadispiro[3.0.4.1]decane-8-carboxamide]
200 nM | C=C[C@@H]1C[C@]1(NC(=O)[C@@H]1C[C@@]2(CN1C(=O)[C@@H](NC(=O)[C@@H](CC(=O)N1CCCCC1)C(C)(C)C)C(C)(C)C)C(C)(C)C21CCC1)C(=O)NS(=O)(=O)C1CC1 [Compound 60, (5R,8S)-N-{(1R,2S)-1-[(cyclopropylsulfonyl)carba-moyl]-2-vinylcyclopropyl}-7-[(2S)-2-{[(2S)-3,3-dimethyl-2-(2-oxo-2-piperidin-1-ylethyl)butanoyl]amino}-3,3-dimethylbutanoyl]-10,10-dimethyl-7-azadispiro[3.0.4.1]decane-8-carboxamide]
70 nM | C=C[C@@H]1C[C@]1(NC(=O)[C@@H]1C[C@@]2(CN1C(=O)[C@@H](NC(=O)[C@@H](CC(=O)N(C)C)C(C)(C)C)C(C)(C)C)C(C)(C)C21CCC1)C(=O)NS(=O)(=O)C1CC1 [Compound 65, (2S)-2-tert-butyl-N1-[(1S)-1-{[(5R,8S)-8-({(1R,2S)-1-[(cyclopropylsulfonyl)carba-moyl]-2-vinylcyclopropyl}carbamoyl)-10,10-dimethyl-7-azadispiro[3.0.4.1]dec-7-yl]carbonyl}-2,2-dimethylpropyl]-N4,N4-dimethylsuccinamide]
